ChEMBL document CHEMBL1201862, “PubChem BioAssay data set” (2004)
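1) Cells in 96-well plates. 2) Compound, 48 h, 5 concentrations. 3) Linear interpolation between surrounding doses. 4) Unreached endpoint = highest concentration. Abbreviation: GI50, concentration required for 50% inhibition of growth.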 Activity calls are given as the source filed them. Rule as the data show it: active = GI50 up to about 1.1 µM and inactive = higher.

Columns and labels:
Test in all cases: NCI tumour cell line growth inhibition, 48 h
786-0 = system: 786-0
A498 = system: A498
A549 = system: A549
ACHN = system: ACHN
CAKI-1 = system: CAKI-1
CCRF-CEM = system: CCRF-CEM
COLO 205 = system: COLO 205
DLD-1 = system: DLD-1
DMS-114 = system: DMS-114
DMS-273 = system: DMS-273
EKVX = system: EKVX
HCC 2998 = system: HCC 2998
HCT-116 = system: HCT-116
HCT-15 = system: HCT-15
HL-60 = system: HL-60
HOP-18 = system: HOP-18
HOP-62 = system: HOP-62
HOP-92 = system: HOP-92
HT-29 = system: HT-29
IGROV-1 = system: IGROV-1
K562 = system: K562
KM-20L2 = system: KM-20L2
KM12 = system: KM12
LOX IMVI = system: LOX IMVI
LXFL 529 = system: LXFL 529
M14 = system: M14
M19-MEL = system: M19-MEL
MOLT-4 = system: MOLT-4
Malme-3M = system: Malme-3M
NCI-H226 = system: NCI-H226
NCI-H23 = system: NCI-H23
NCI-H460 = system: NCI-H460
NCI-H522 = system: NCI-H522
OVCAR-3 = system: OVCAR-3
OVCAR-4 = system: OVCAR-4
OVCAR-5 = system: OVCAR-5
OVCAR-8 = system: OVCAR-8
RPMI-8226 = system: RPMI-8226
RXF 393 = system: RXF 393
RXF 631 = system: RXF 631
SF-268 = system: SF-268
SF-295 = system: SF-295
SF-539 = system: SF-539
SK-MEL-28 = system: SK-MEL-28
SK-MEL-2 = system: SK-MEL-2
SK-MEL-5 = system: SK-MEL-5
SK-OV-3 = system: SK-OV-3
SN12C = system: SN12C
SNB-75 = system: SNB-75
SNB-78 = system: SNB-78
SR = system: SR
TK-10 = system: TK-10
U-251 = system: U-251
UACC-257 = system: UACC-257
UACC-62 = system: UACC-62
UO-31 = system: UO-31
SNB-19 = system: SNB-19
SW-620 = system: SW-620
XF498 = system: XF498

What does the source list for `Cc1ccc(C(=O)O/N=C2/CCCCC2CN(C)C)cc1` (stereo not drawn)?
GI50 (786-0): > 100 µM (inactive); GI50 (A498): > 100 µM (inactive); GI50 (A549): > 100 µM (inactive); GI50 (ACHN): > 100 µM (inactive); GI50 (CAKI-1): > 100 µM (inactive); GI50 (CCRF-CEM): > 100 µM (inactive); GI50 (COLO 205): > 100 µM (inactive); GI50 (DLD-1): > 100 µM (inactive); GI50 (DMS-114): > 100 µM (inactive); GI50 (DMS-273): > 100 µM (inactive); GI50 (EKVX): > 100 µM (inactive); GI50 (HCC 2998): > 100 µM (inactive); GI50 (HCT-116): > 100 µM (inactive); GI50 (HCT-15): > 100 µM; GI50 (HL-60): > 100 µM (inactive); GI50 (HOP-18): > 100 µM (inactive); GI50 (HOP-62): > 100 µM (inactive); GI50 (HOP-92): > 100 µM (inactive); GI50 (HT-29): > 100 µM (inactive); GI50 (IGROV-1): > 100 µM (inactive); GI50 (K562): > 100 µM (inactive); GI50 (KM-20L2): > 100 µM (inactive); GI50 (KM12): > 100 µM (inactive); GI50 (LOX IMVI): > 100 µM (inactive); GI50 (LXFL 529): > 100 µM (inactive); GI50 (M14): > 100 µM (inactive); GI50 (M19-MEL): > 100 µM (inactive); GI50 (MOLT-4): > 100 µM (inactive); GI50 (Malme-3M): > 100 µM (inactive); GI50 (NCI-H226): > 100 µM (inactive); GI50 (NCI-H23): > 100 µM (inactive); GI50 (NCI-H460): > 100 µM (inactive); GI50 (NCI-H522): > 100 µM (inactive); GI50 (OVCAR-3): > 100 µM (inactive); GI50 (OVCAR-4): > 100 µM (inactive); GI50 (OVCAR-5): > 100 µM (inactive); GI50 (OVCAR-8): > 100 µM (inactive); GI50 (RPMI-8226): > 100 µM (inactive); GI50 (RXF 393): > 100 µM (inactive); GI50 (RXF 631): > 100 µM (inactive); GI50 (SF-268): > 10 µM (inactive); GI50 (SF-295): > 100 µM (inactive); GI50 (SF-539): > 100 µM (inactive); GI50 (SK-MEL-28): > 100 µM (inactive); GI50 (SK-MEL-2): > 100 µM (inactive); GI50 (SK-MEL-5): > 100 µM (inactive); GI50 (SK-OV-3): > 100 µM (inactive); GI50 (SN12C): > 100 µM (inactive); GI50 (SNB-75): > 100 µM (inactive); GI50 (SNB-78): > 100 µM (inactive); GI50 (SR): > 100 µM (inactive); GI50 (TK-10): > 100 µM (inactive); GI50 (U-251): > 100 µM (inactive); GI50 (UACC-257): > 100 µM (inactive); GI50 (UACC-62): > 100 µM (inactive); GI50 (UO-31): > 100 µM (inactive)

For `Clc1ccc(C2SCc3nc4ccccc4n32)cc1` (stereo not drawn), which GI50 (A498) is on record?
The GI50 was 20.9 µM (inactive).

And the GI50 (ACHN)?
Its GI50 is 30.1 µM (inactive).

What about the GI50 (CAKI-1) of the same compound?
The GI50 was 16.8 µM (inactive).

And the GI50 (CCRF-CEM)?
Its GI50 is 23.2 µM (inactive).

What about the GI50 (COLO 205) of the same compound?
Its GI50 is 16.5 µM (inactive).

And the GI50 (DMS-114)?
The GI50 was 5.57 µM (inactive).

And the GI50 (DMS-273)?
Its GI50 is 15.4 µM (inactive).

And the GI50 (EKVX)?
Its GI50 is 34.5 µM (inactive).

What about the GI50 (HCT-15) of the same compound?
Its GI50 is 27.4 µM.

What about the GI50 (HL-60) of the same compound?
Its GI50 is 5.24 µM (inactive).

And the GI50 (HOP-18)?
The GI50 was 23.3 µM (inactive).

And the GI50 (HOP-92)?
The GI50 was 2.54 µM (inactive).

And the GI50 (HT-29)?
The GI50 was 19.5 µM (inactive).

And the GI50 (IGROV-1)?
The GI50 was 14.5 µM (inactive).

And the GI50 (K562)?
The GI50 was 15.2 µM (inactive).

And the GI50 (KM-20L2)?
The GI50 was 28.2 µM (inactive).

And the GI50 (LOX IMVI)?
Its GI50 is 14.9 µM (inactive).

And the GI50 (LXFL 529)?
The GI50 was 18.7 µM (inactive).

What about the GI50 (M14) of the same compound?
Its GI50 is 18.5 µM (inactive).

What about the GI50 (M19-MEL) of the same compound?
The GI50 was 19.9 µM (inactive).

What about the GI50 (MOLT-4) of the same compound?
The GI50 was 18 µM (inactive).

What about the GI50 (Malme-3M) of the same compound?
The GI50 was 11.1 µM (inactive).

And the GI50 (NCI-H226)?
The GI50 was 19.4 µM (inactive).

What about the GI50 (NCI-H23) of the same compound?
The GI50 was 10.9 µM (inactive).

What about the GI50 (NCI-H460) of the same compound?
Its GI50 is 28.9 µM (inactive).

And the GI50 (NCI-H522)?
Its GI50 is 14.4 µM (inactive).

And the GI50 (OVCAR-3)?
Its GI50 is 24.8 µM (inactive).

And the GI50 (OVCAR-8)?
Its GI50 is 29.1 µM (inactive).

What about the GI50 (RPMI-8226) of the same compound?
The GI50 was 14.9 µM (inactive).

And the GI50 (RXF 631)?
The GI50 was 29.2 µM (inactive).

And the GI50 (SF-268)?
Its GI50 is 19 µM (inactive).

And the GI50 (SF-295)?
The GI50 was 26.2 µM (inactive).

What about the GI50 (SF-539) of the same compound?
Its GI50 is 22.6 µM (inactive).

What about the GI50 (SK-MEL-28) of the same compound?
Its GI50 is 21.2 µM (inactive).

What about the GI50 (SK-MEL-2) of the same compound?
Its GI50 is 16 µM (inactive).

What about the GI50 (SK-MEL-5) of the same compound?
Its GI50 is 10.3 µM (inactive).

And the GI50 (SK-OV-3)?
Its GI50 is 25.4 µM (inactive).

What about the GI50 (SN12C) of the same compound?
The GI50 was 17.1 µM (inactive).

And the GI50 (SNB-19)?
The GI50 was 14.8 µM (inactive).

What about the GI50 (SNB-75) of the same compound?
The GI50 was 4.88 µM (inactive).

What about the GI50 (SNB-78) of the same compound?
The GI50 was 29.9 µM (inactive).

And the GI50 (SW-620)?
Its GI50 is 33.3 µM (inactive).

And the GI50 (TK-10)?
The GI50 was 30.1 µM (inactive).

What about the GI50 (U-251) of the same compound?
Its GI50 is 24 µM (inactive).

What about the GI50 (UACC-62) of the same compound?
The GI50 was 13.8 µM (inactive).

And the GI50 (UO-31)?
Its GI50 is 13.5 µM (inactive).

And the GI50 (XF498)?
The GI50 was 8.2 µM (inactive).
